The values below come from paper PMC10791897, “Ligand-binding properties of XaffOBP9, a Minus-C odorant-binding protein from Xyleborus affinis (Coleoptera: Curculionidae: Scolytinae)” (Frontiers in Physiology, 2024).

For one assay, the target named is XaffOBP9. Briefly: Fluorescence binding assays of XaffOBP9 (1-NPN titration and competitive binding). Set-up: species or system Xyleborus affinis. The note with it: for Ki: calculated from IC50: Ki = [IC50]/(1 + [1-NPN]/K1-NPN); for IC50: competitor displacing 1-NPN, 2 μM protein, 50 mM Tris-HCl pH 7.4. The procedure:
(§1) The purified XaffOBP9 was dissolved at a final concentration of 2 μM in 50 mM Tris-HCl (pH 7.4). The binding ability of the fluorescent probe to XaffOBP9 was measured using the Infinite 200 PRO microplate plate reader (Tecan, Mannedorf, Switzerland). […] These compounds (>90% puity) were purchased from Yuanye Bio-Technology (Shanghai, China), Alading Chemical Industry (Shanghai, China) and Sigma-Aldrich (MO, United States). Binding data were collected as three independent measurements. […] The data analysis and binding curve calculations were processed in Prism 8 (Graphpad Software, San Diego, CA, United States).

In a further assay the test system is XaffOBP9 mutant L114A. Put plainly: Fluorescence binding assays of mutant L114A. Set-up: species or system Xyleborus affinis. The note with it: for binding of ligand to L114A mutant protein: fluorescence binding assays, classes by Ki as in Figure 8 legend. Here is the method: (§2) The purified XaffOBP9 was dissolved at a final concentration of 2 μM in 50 mM Tris-HCl (pH 7.4). The binding ability of the fluorescent probe to XaffOBP9 was measured using the Infinite 200 PRO microplate plate reader (Tecan, Mannedorf, Switzerland). […] Binding data were collected as three independent measurements. […] The data analysis and binding curve calculations were processed in Prism 8 (Graphpad Software, San Diego, CA, United States).
(§3) Three types of XaffOBP9 mutants (L71A, L114A, Y106A) were generated using the Fast Site-Directed Mutagenesis Kit (Tiangen, Beijing, China) according to manufacturer protocol. Sited-directed mutagenesis primers were listed in Supplementary Table S1 The PCR amplification reaction was 95°C for 2 min, followed by 94 C for 20 s, 55 C for 10 s, 68 C 2.5 min, with final incubation at 68 °C for 5 min. The three mutant proteins were then expressed and purified following the procedures used for wild-type XaffOBP9.

In a further assay the test system is X. affinis. The note with it: cited from earlier work; for attraction of X. affinis: 2020.
Another assay addresses XaffOBP9 mutant L71A. Briefly: Fluorescence binding assays of mutant L71A. Set-up: species or system Xyleborus affinis. The note with it: read-out: Kd with 1-NPN. Here is the method:
as §1, §3

In a further assay the target is XaffOBP9 mutant Y106A. Briefly: Fluorescence binding assays of mutant Y106A. Set-up: species or system Xyleborus affinis. The procedure: as §2, §3

Each structure is given as a SMILES string. Entries after “also recorded” stand apart in the source; their conditions may differ. Where two headings read alike, the source gives them in different places.

A word on the Ki: it is the equilibrium dissociation constant of an inhibitor or competing ligand from its target. A word on the IC50: it is the point on the concentration scale where inhibition reaches its midpoint. Read a high IC50 as weaker potency.

Turning to `C=C1C2CCC3C2C(C)(C)CCCC13C` (single isomer, unassigned; (+)) [(+)-Longifolene], at XaffOBP9, the Ki is 16.7 µM and the IC50 is 19.5 µM. Further, the “binding of ligand to L114A mutant protein” value (from here on “binding of ligand”) in the assay on XaffOBP9 mutant L114A is “lost its ability to bind”. The “attraction of X. affinis” value in the assay on X. affinis (ref Xu et al.) is given as “attraction effect”.
On to `CC(C)(O)c1ccccc1` [2-Phenyl-2-propanol], for which, at XaffOBP9, the Ki was 12 µM and the IC50 came out at 14 µM. Moreover, the “binding of ligand” value in the assay on XaffOBP9 mutant L114A was “lost its ability to bind”. Moreover, the “attraction of X. affinis” value in the assay on X. affinis (ref Xu et al.) was “attraction effect”.
Turning to `C=C1CCC2CC1C2(C)C` (stereo not drawn) [(-)-β-pinene], on XaffOBP9, the Ki is 13.7 µM and the IC50 was 16 µM.
For the compound `C=C(C)[C@@H]1CC=C(C)CC1` [(S)-(-)-Limonene], on XaffOBP9, the Ki was 14 µM and the IC50 is 16.4 µM. The “binding of ligand” value with XaffOBP9 mutant L114A is “lost its ability to bind”.
Regarding `CC1=CC(O)C2CC1C2(C)C` [(S)-cis-Verbenol], at XaffOBP9, the Ki was 13.9 µM and the IC50 came to 16.2 µM. The “binding of ligand” value in the assay with XaffOBP9 mutant L114A is “weakly bound”. Also, the “attraction of this rubber bark beetle” value with X. affinis (aggregation pheromone, ref Brand et al., 1975, Chen et al., 2019) was “exhibits attraction effects”.
For `C=C1C2CCC(C2)C1(C)C` (stereo not drawn) [Camphene], on XaffOBP9, the Ki is 8 µM and the concentration for half-maximal inhibition (IC50) came out at 9.3 µM.
Turning to `c1ccc(Nc2cccc3ccccc23)cc1` [Ligand 1-NPN, N-phentl-1-naphthylamine, reference compound], the Kd at XaffOBP9 (read-out: dissociation constant K 1-NPN, titration of 2 μM protein with 1-NPN, Scatchard plot) was 5.91 µM; at XaffOBP9 mutant L71A, 5.97 µM; on XaffOBP9 mutant Y106A (read-out: Kd with 1-NPN, mutant Y106A), 8.7 µM; at XaffOBP9 mutant L114A (read-out: Kd with 1-NPN, mutant L114A), 14.8 µM.
Consider `CC1=CCC2C(C1)C2(C)C` (stereo not drawn) [Ligand 3-Carene, 3-Carene], for which, on XaffOBP9, the Ki was 10.6 µM and the IC50 is 12.4 µM. Besides, the “binding of ligand” value in the assay on XaffOBP9 mutant L114A was “lost its ability to bind”.
For the compound `CCCCCCCCCCCCCCCC(=O)OC` [Methyl palmitate], in the assay with XaffOBP9 (competitive fluorescence binding curves), the “reduction of relative fluorescence intensity of the [XaffOBP/1-NPN] mixture” value is reported as “did not reduce the relative fluorescence intensity to less than half”.
As for `C=CC(=C)CCC=C(C)C` [Myrcene], on XaffOBP9, the inhibition constant Ki was 9.8 µM and the IC50 was 11.4 µM. Besides, in the assay with XaffOBP9 mutant L114A, the “binding of ligand” value is “lost its ability to bind”.
For `C=C1CCC2(C(C)C)CC12` (stereo not drawn) [Sabinene], in that order: 15.6 µM, 18.2 µM and “lost its ability to bind”.
With `CC1=CCC(=C(C)C)CC1` [Terpinolene], on XaffOBP9, the Ki is 11.3 µM and the IC50 is 13.2 µM. Further, in the assay with XaffOBP9 mutant L114A, the “binding of ligand” value is “lost its ability to bind”.
Turning to `CCCCCCCCCCCCCC` [Tetradecane], on XaffOBP9, the Ki was 13.5 µM and the IC50 was determined as 15.7 µM. Also, the “change of binding affinity of Y106A compared with WT” value in the assay on XaffOBP9 mutant Y106A (fluorescence binding assays) is “noticeable decrease in its affinity; also recorded: certain decrease in binding”. The “binding of ligand” value with XaffOBP9 mutant L114A is “lost its ability to bind”. In the assay on X. affinis (ref Xu et al.), the “attraction of X. affinis” value is given as “attraction effect”.
With `CCO` [ethanol], the “attraction of X. affinis” value with X. affinis (attractant lure, ref Ranger et al., 2011, Steininger et al., 2015, Lehenberger et al., Cavaletto et al., 2021) is reported as “only weakly attracted”.
For `Cc1cccc(C(C)C)c1` [m-Cymene], at XaffOBP9, the Ki is 14.8 µM and the IC50 stood at 17.3 µM. Besides, the “binding of ligand” value in the assay on XaffOBP9 mutant L114A is “weakly bound”.
For the compound `CC1=CC[C@H]2[C@H]3[C@@H]1[C@]2(C)CC[C@H]3C(C)C` [α-copaene], on XaffOBP9, the Ki is 11.4 µM and the IC50 stood at 13.3 µM. In addition, the “binding of ligand” value in the assay with XaffOBP9 mutant L114A is given as “weakly bound”.
Take `CC1=CCC2CC1C2(C)C` (stereo not drawn) [α-pinene]: on XaffOBP9, the Ki is 8.5 µM and the IC50 amounted to 9.9 µM. Moreover, the “effect on attraction of X. affinis” value in the assay on X. affinis (trapping investigations, ref Miller and Rabaglia, 2009) is recorded as “enhance the attractive effect of ethanol”.
